Test results reported in US20080139564A1, “SUBSTITUTED PHENYL PROPYL AMINES AS HISTAMINE H3 RECEPTOR AND SEROTONIN TRANSPORTER MODULATORS” (priority 2006, published 2008).

What was measured:
[1] = biological target: T1, human H3 receptor (Homo sapiens, UniProt Q9Y5N1); test: H3 receptor binding (N-[3H]-α-methylhistamine displacement, SK-N-MC cell membranes); conditions: 0.8 nM N-[3H]-α-methylhistamine, 60 min at 25° C.
T1 construct: expressed in transfected cells
Experimental: Binding of compounds to the cloned human H3 receptor, stably expressed in SK-N-MC cells, was performed (Lovenberg, T. W. et al. J. Pharmacol. Exp. Ther. 2000, 293, 771-778). Briefly, cell pellets from SK-N-MC cells expressing the human H3 receptor were homogenized in 50 mM Tris-HCl/5 mM EDTA and re-centrifuged at 30,000 g for 30 min. Pellets were re-homogenized in 50 mM Tris/5 mM EDTA (pH 7.4). Membranes were incubated with 0.8 nM N—[^3H]-α-methylhistamine plus/minus test compounds for 60 min at 25° C. and harvested by rapid filtration over GF/C glass fiber filters (pretreated with 0.3% polyethylenimine) followed by four washes with ice-cold buffer. Nonspecific binding was defined in the presence of 10 μM histamine.

[2] = biological target: T2, Rat SERT (Rattus norvegicus, UniProt P31652); test: Rat brain SERT binding ([3H]-Citalopram displacement, rat brain membranes); conditions: 0.6 nM [3H]-Citalopram, 60 min at 25° C.
T2 construct: A rat brain without cerebellum (Zivic Laboratories, Inc.—Pittsburgh, Pa.) was homogenized; tissue Zivic Laboratories, Inc; host or cells: rat brain without cerebellum
T2 sequence (P31652 whole entry): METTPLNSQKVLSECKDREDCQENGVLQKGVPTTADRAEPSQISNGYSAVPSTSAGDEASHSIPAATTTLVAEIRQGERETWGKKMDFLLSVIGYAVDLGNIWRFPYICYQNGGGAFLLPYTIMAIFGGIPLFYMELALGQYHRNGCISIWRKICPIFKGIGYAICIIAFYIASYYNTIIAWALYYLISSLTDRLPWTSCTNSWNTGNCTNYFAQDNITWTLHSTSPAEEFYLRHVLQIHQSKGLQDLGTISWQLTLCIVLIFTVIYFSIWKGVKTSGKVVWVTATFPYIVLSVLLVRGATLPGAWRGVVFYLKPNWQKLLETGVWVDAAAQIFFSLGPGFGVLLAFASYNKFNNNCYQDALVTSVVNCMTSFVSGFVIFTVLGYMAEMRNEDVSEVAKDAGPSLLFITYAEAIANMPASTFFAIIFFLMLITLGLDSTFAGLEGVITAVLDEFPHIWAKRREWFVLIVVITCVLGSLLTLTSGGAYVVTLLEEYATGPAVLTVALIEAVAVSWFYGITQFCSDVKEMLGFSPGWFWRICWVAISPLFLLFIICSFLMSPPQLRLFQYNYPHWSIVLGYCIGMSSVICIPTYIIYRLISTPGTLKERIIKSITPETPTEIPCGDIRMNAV
Experimental: A rat brain without cerebellum (Zivic Laboratories, Inc.—Pittsburgh, Pa.) was homogenized in a 52.6 mM Tris pH 8/126.4 mM NaCl/5.26 mM KCl mixture and centrifuged at 1,000 rpm for 5 min. The supernatant was removed and re-centrifuged at 15,000 rpm for 30 min. Pellets were re-homogenized in a 52.6 mM Tris pH8/126.4 mM NaCl/5.26 mM KCl mixture. Membranes were incubated with 0.6 nM [^3H]-Citalopram plus/minus test compounds for 60 min at 25° C. and harvested by rapid filtration over GF/C glass fiber filters (pretreated with 0.3% polyethylenimine) followed by four washes with ice-cold buffer. Nonspecific binding was defined in the presence of 100 μM fluoxetine.

[3] = biological target: T3, human SERT (Homo sapiens, UniProt P31645); test: Human SERT binding (3H-citalopram displacement, HEK293 membranes); conditions: 3H-citalopram 3.1 nM, rt for 1 h
T3 construct: expressed in transfected cells; host or cells: HEK293
T3 sequence (P31645 whole entry): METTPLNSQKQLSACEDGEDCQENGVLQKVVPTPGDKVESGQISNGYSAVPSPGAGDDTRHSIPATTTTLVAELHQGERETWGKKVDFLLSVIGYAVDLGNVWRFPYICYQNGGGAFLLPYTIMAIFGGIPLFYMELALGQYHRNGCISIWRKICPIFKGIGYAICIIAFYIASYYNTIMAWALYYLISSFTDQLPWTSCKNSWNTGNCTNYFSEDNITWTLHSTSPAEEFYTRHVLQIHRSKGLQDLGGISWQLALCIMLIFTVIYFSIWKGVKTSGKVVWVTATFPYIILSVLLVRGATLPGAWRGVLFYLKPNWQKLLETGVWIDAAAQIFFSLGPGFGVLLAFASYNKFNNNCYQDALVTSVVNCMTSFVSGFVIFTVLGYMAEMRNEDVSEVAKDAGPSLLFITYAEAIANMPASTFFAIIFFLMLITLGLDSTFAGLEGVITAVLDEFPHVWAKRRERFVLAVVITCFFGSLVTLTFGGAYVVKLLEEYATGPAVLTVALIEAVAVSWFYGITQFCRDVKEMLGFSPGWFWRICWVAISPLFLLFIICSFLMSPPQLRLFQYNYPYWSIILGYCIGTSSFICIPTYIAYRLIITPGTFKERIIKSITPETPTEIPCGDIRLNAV
Experimental: Homogenized HEK293 (Human Embryonic Kidney) membranes expressing the human SERT were incubated with ^3H-citalopram (SERT) at rt for 1 h in 50 mM Tris, 120 mM NaCl, 5 mM KCl (pH 7.4). Nonspecific binding was determined in the presence of 10 μM fluoxetine for the SERT. The membranes were washed and the radioactivity was counted as above. Calculations for Ki at the SERT were based on a Kd value for ^3H-citalopram and a ligand concentration of 3.1 nM.

[4] = biological target: T1, human H3 receptor; test: Cyclic AMP accumulation (β-galactosidase reporter in SK-N-MC cells); assay type: cell-based; conditions: read-out: pA2 (converted)
Experimental: Sublines of SK-N-MC cells were created that expressed a reporter construct and the human H3 receptor. The reporter gene (β-galactosidase) is under the control of multiple cyclic AMP responsive elements. In 96-well plates, histamine was added directly to the cell media followed 5 min later by an addition of forskolin (5 μM final concentration). When appropriate, antagonists were added 10 min prior to agonist addition. After a 6-h incubation at 37° C., the media was aspirated and the cells washed with 200 μL of phosphate-buffered saline followed by a second aspiration. Cells were lysed with 25 μL 0.1× assay buffer (10 mM Na-phosphate, pH 8, 0.2 mM MgSO4, 0.01 mM MnCl2) and incubated at rt for 10 min. Cells were then incubated for 10 min with 100 μL of 1× assay buffer containing 0.5% Triton and 40 mM β-mercaptoethanol. Color was developed using 25 μL of 1 mg/mL substrate solution (chlorophenolred β-D galactopyranoside; Roche Molecular Biochemicals, Indianapolis, Ind.). Color was quantitated on a microplate reader at absorbance 570 nm. The pA2 values were calculated by Schild regression analysis of the pEC50 values.

T1 sequence (Q9Y5N1 whole entry): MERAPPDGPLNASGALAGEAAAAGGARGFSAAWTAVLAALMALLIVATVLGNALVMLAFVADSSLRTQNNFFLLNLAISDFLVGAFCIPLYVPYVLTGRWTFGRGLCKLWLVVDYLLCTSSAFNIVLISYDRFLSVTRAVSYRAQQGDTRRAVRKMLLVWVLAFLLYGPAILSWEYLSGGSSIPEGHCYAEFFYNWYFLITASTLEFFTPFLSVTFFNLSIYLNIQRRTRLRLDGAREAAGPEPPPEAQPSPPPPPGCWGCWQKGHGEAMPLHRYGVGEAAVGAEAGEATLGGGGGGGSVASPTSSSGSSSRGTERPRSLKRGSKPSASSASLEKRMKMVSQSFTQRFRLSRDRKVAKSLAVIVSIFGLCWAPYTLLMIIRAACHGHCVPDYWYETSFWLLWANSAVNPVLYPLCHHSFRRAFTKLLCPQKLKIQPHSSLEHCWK

| Compound | Ki [1] | Ki [2] | Ki [3] | Kb [4] |
| --- | --- | --- | --- | --- |
| CN(C)CCC(Oc1ccc(Br)cc1)c1ccc(OCCCN2CCCCC2)cc1 (centres unmarked) [Example 11, {3-(4-Bromo-phenoxy)-3-[4-(3-piperidin-1-yl-propoxy)-phenyl]-propyl}-dimethyl-amine] | 1.7 nM | 5 nM | 7 nM |  |
| CN(C)CCC(Oc1ccc([N+](=O)[O-])cc1)c1ccc(OCCCN2CCCCC2)cc1 (centres unmarked) [Example 12, Dimethyl-{3-(4-nitro-phenoxy)-3-[4-(3-piperidin-1-yl-propoxy)phenyl]-propyl}-amine] | 0.9 nM | 4 nM | 9 nM |  |
| CN(C)CCC(Oc1ccc(Cl)cc1Cl)c1ccc(OCCCN2CCCCC2)cc1 (centres unmarked) [Example 16, {3-(2,4-Dichloro-phenoxy)-3-[4-(3-piperidin-1-yl-propoxy)-phenyl]-propyl}-dimethyl-amine] | 0.9 nM | 7 nM | 10 nM |  |
| CN(C)CCC(Oc1ccccc1Cl)c1ccc(OCCCN2CCCCC2)cc1 (centres unmarked) [Example 17, {3-(2-Chloro-phenoxy)-3-[4-(3-piperidin-1-yl-propoxy)-phenyl]-propyl}-dimethyl-amine] | 0.9 nM | 8 nM | 21 nM |  |
| CN(C)CCC(Oc1ccc2[nH]ccc2c1)c1ccc(OCCCN2CCCCC2)cc1 (centres unmarked) [Example 19, {3-(1H-Indol-5-yloxy)-3-[4-(3-piperidin-1-yl-propoxy)-phenyl]-propyl}-dimethyl-amine] | 1 nM | 44 nM |  | 0.977 nM |
| CC(C)N1CCN(CCC#Cc2ccc(C(CCN(C)C)Oc3ccccc3)cc2)CC1 (centres unmarked) [Example 22, (3-{4-[4-(4-Isopropyl-piperazin-1-yl)-but-1-ynyl]-phenyl}-3-phenoxy-propyl)-dimethyl-amine] | 49 nM | 6 nM | 22 nM |  |
| CN(C)CCC(Oc1ccccc1)c1ccc(C#CCCN2CCOCC2)cc1 (centres unmarked) [Example 23, Dimethyl-{3-[4-(4-morpholin-4-yl-but-1-ynyl)-phenyl]-3-phenoxy-propyl}-amine] | 19 nM | 13 nM | 37 nM |  |
| CN(C)CCC(Oc1ccccc1)c1ccc(C#CCCN2CCSCC2)cc1 (centres unmarked) [Example 24, Dimethyl-{3-phenoxy-3-[4-(4-thiomorpholin-4-yl-but-1-ynyl)phenyl]-propyl}-amine] | 11 nM | 18 nM | 34 nM |  |
| CN(C)CCC(Oc1ccccc1)c1cccc(C#CCCN2CCCCC2)c1 (centres unmarked) [Example 31, Dimethyl-{3-phenoxy-3-[3-(4-piperidin-1-yl-but-1-ynyl)-phenyl]-propyl}-amine] | 2 nM | 16 nM | 154 nM |  |
| CN(C)CCC(Oc1ccc(C(F)(F)F)cc1)c1ccc(CCCCN2CCCCC2)cc1 (centres unmarked) [Example 33, Dimethyl-[3-[4-(4-piperidin-1-yl-butyl)-phenyl]-3-(4-trifluoromethylphenoxy)-propyl]-amine] | 23 nM | 3 nM | 5 nM |  |
| CC(C)N1CCN(CCCCc2ccc(C(CCN(C)C)Oc3ccc(C(F)(F)F)cc3)cc2)CC1 (centres unmarked) [Example 34, [3-[4-[4-(4-Isopropyl-piperazin-1-yl)-butyl]-phenyl]-3-(4-trifluoromethyl-phenoxy)-propyl]-dimethyl-amine] | 12 nM | 7 nM | 10 nM |  |
| CN(C)CCC(Oc1ccc(C(F)(F)F)cc1)c1ccc(CCCCN2CCOCC2)cc1 (centres unmarked) [Example 35, Dimethyl-[3-[4-(4-morpholin-4-yl-butyl)-phenyl]-3-(4-trifluoromethyl-phenoxy)-propyl]-amine] | 32 nM | 10 nM | 6 nM |  |
| CN(C)CCC(Oc1cccc(OCCCN2CCCCC2)c1)c1ccccc1 (centres unmarked) [Example 37, Dimethyl-{3-phenyl-3-[3-(3-piperidin-1-yl-propoxy)-phenoxy]-propyl}-amine] | 0.7 nM | 65 nM | 1330 nM |  |
| CC(C)N1CCN(C(=O)c2ccc(C(CCN(C)C)Oc3ccc(C(F)(F)F)cc3)cc2)CC1 (centres unmarked) [Example 39, {4-[3-Dimethylamino-1-(4-trifluoromethyl-phenoxy)-propyl]-phenyl}-(4-isopropyl-piperazin-1-yl)-methanone] | 2 nM |  |  | 0.933 nM |
| CC(C)N1CCC(Oc2ccc(OC(CCN(C)C)c3ccc(C(F)(F)F)cc3)cc2)CC1 (centres unmarked) [Example 45, [3-[4-(1-Isopropyl-piperidin-4-yloxy)-phenoxy]-3-(4-trifluoromethylphenyl)-propyl]-dimethyl-amine] | 2 nM | 65 nM |  | 1.48 nM |
| CN(C)CCC(Oc1ccc(C(F)(F)F)cc1)c1ccc(C(=O)N2CCN(C3CCCC3)CC2)cc1 (centres unmarked) [Example 50, (4-Cyclopentyl-piperazin-1-yl)-{4-[3-dimethylamino-1-(4-trifluoromethyl-phenoxy)-propyl]-phenyl}-methanone] | 3 nM | 53 nM |  | 1.48 nM |
| CN(C)CCC(Oc1ccc(C(F)(F)F)cc1)c1ccc(CN2CCN(C3CCCC3)CC2)cc1 (centres unmarked) [Example 51, [3-[4-(4-Cyclopentyl-piperazin-1-ylmethyl)-phenyl]-3-(4-trifluoromethyl-phenoxy)-propyl]-dimethyl-amine] | 7 nM | 30 nM |  | 11.2 nM |
| CCC(C)N1CCN(C(=O)c2ccc(C(CCN(C)C)Oc3ccc(C(F)(F)F)cc3)cc2)CC1 (centres unmarked) [Example 52, (4-sec-Butyl-piperazin-1-yl)-{4-[3-dimethylamino-1-(4-trifluoromethyl-phenoxy)-propyl]-phenyl}-methanone] | 2 nM | 33 nM |  | 1.2 nM |
| CCC(CC)N1CCN(C(=O)c2ccc(C(CCN(C)C)Oc3ccc(C(F)(F)F)cc3)cc2)CC1 (centres unmarked) [Example 53, {4-[3-Dimethylamino-1-(4-trifluoromethyl-phenoxy)-propyl]-phenyl}-[4-(1-ethyl-propyl)-piperazin-1-yl]-methanone] | 8 nM | 102 nM |  | 2.45 nM |
| CCC(CC)N1CCN(Cc2ccc(C(CCN(C)C)Oc3ccc(C(F)(F)F)cc3)cc2)CC1 (centres unmarked) [Example 54, [3-{4-[4-(1-Ethyl-propyl)-piperazin-1-ylmethyl]-phenyl}-3-(4-trifluoromethyl-phenoxy)-propyl]-dimethyl-amine] | 5 nM | 37 nM |  | 18.6 nM |
| CC(C)N1CCN(Cc2ccc(C(CCN(C)C)Oc3ccc(C(F)(F)F)cc3)cc2)CC1 (centres unmarked) [Example 55, [3-[4-(4-Isopropyl-piperazin-1-ylmethyl)-phenyl]-3-(4-trifluoromethyl-phenoxy)-propyl]-dimethyl-amine] | 2 nM | 27 nM |  | 9.33 nM |
| CN(C)CCC(Oc1ccc(C#CCCN2CCCCC2)cc1)c1ccc(C(F)(F)F)cc1 (centres unmarked) [Example 60, Dimethyl-[3-[4-(4-piperidin-1-yl-but-1-ynyl)-phenoxy]-3-(4-trifluoromethyl-phenyl)-propyl]-amine] | 24 nM | 168 nM |  | 17.8 nM |
| NCCC(Oc1ccccc1)c1ccc(OCCCN2CCCCC2)cc1 (centres unmarked) [Example 68, 3-Phenoxy-3-[4-(3-piperidin-1-yl-propoxy)-phenyl]-propylamine] | 0.8 nM | 7 nM | 21 nM |  |
| CNCCC(Oc1ccccc1)c1ccc(OCCCN2CCCCC2)cc1 (centres unmarked) [Example 72, Methyl-{3-phenoxy-3-[4-(3-piperidin-1-yl-propoxy)-phenyl]-propyl}-amine] | 0.9 nM | 5 nM | 25 nM |  |
| c1ccc(OC(CCN2CCCC2)c2ccc(OCCCN3CCCCC3)cc2)cc1 (centres unmarked) [Example 73, 1-{3-[4-(1-Phenoxy-3-pyrrolidin-1-yl-propyl)-phenoxy]-propyl}-piperidine] | 0.2 nM | 633 nM | 4000 nM |  |
